Drawing on patent US20250332173A1, “COMPOUNDS AND METHODS FOR MODULATING NUCLEIC ACID SPLICING” (REMIX THERAPEUTICS INC., priority 2021, published 2025), this text covers IC50 for one compound.

Test [1] deals with SMN2 mRNA. Put plainly: RT-qPCR splicing assay, SMN2 canonical junction (CJ) mRNA. The format is cell-based, human. To be noted: Homo sapiens; Table 5 panel; canonical junction qPCR; compound concentration having 50% response in CJ decrease; read-out: SMN2 IC50 (decrease in CJ mRNA levels). A digest of the protocol: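 K562/A673 cells, 11-pt 3-fold compound titration from 10 uM final, DMSO ≤0.25%, 24 h 37 °C 5% CO2; lyse (DNase I or Igepal/Tris buffer pH 7.4); RT-qPCR for CJ isoform vs housekeeping gene (GAPDH/GUSB/PPIA).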

Test [2] concerns HTT. Briefly: HiBiT protein abundance assay, HTT HiBiT K562 cell line. The format is cell-based, human. Particulars: HiBiT K562 cell line, 24 hours, top dose 10 μM; read-out: Effect on protein abundance, HTT (IC50 category). The procedure, abridged:
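K562 knock-in lines with endogenous HiBiT-tagged target, 10,000 cells/well in IMDM + FBS, treated 24 h at 37° C with 10-point 3-fold dilutions (top 10 μM final; DMSO ≤0.25%). Lytic Nano-Glo HiBiT luminescence normalized to untagged K562 baseline and DMSO controls; IC50 = concentration giving 50% abundance via four-parameter fit.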

In the case of `CNc1cc(-c2cc(C#N)c3nc(C)cn3c2)cc2ncn(C3CCNCC3)c(=O)c12` [Compound 363, 2-methyl-6-[5-(methylamino)-4-oxo-3-(piperidin-4-yl)quinazolin-7-yl]imidazo[1,2-a]pyridine-8-carbonitrile], the figures for the concentration for half-maximal inhibition (IC50) in test [1] and in test [2] were 1 to 10 µM and above 10 µM, respectively.
